Results as given in US4489091A, “Antilipemic and anti-inflammatory compositions containing sulfonate derivatives” (Taiho Pharmaceutical Company Limited, priority 1980, dated 1984).
Where two headings read alike, the source gives them in different places.

Experiments:
triglycerides = experiment: Antilipemic effect: percent triglycerides inhibition in plasma of rats given an olive oil-cholesterol mixture; type: in vivo, male Wistar rats; conditions: for inhibition in vivo at 100 mg/kg: read-out: Anti-lipemic effect, TG (percent triglycerides inhibition); for inhibition in vivo at 200 mg/kg: oral 200 mg/kg (asterisked values), read-out: Anti-lipemic effect, TG (percent triglycerides inhibition), asterisked
Procedure, shortened: (§1)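 Male Wistar rats, seven weeks old, 200 to 220 g, 5 per group, dosed orally at 100 or 200 mg/kg in olive oil-cholesterol mixture (15% cholesterol) at 10 ml/kg. Plasma triglycerides measured at 2 hours, total cholesterol at 8 hours, by enzymatic kits; percent inhibition calculated relative to vehicle control and untreated normal groups.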

cholesterol = experiment: Antilipemic effect: percent total cholesterol inhibition in plasma of rats given an olive oil-cholesterol mixture; type: in vivo, male Wistar rats; conditions: for inhibition in vivo at 100 mg/kg: read-out: Anti-lipemic effect, CS (percent cholesterol inhibition); for Anti-lipemic effect, CS (percent cholesterol inhibition), asterisked: oral 200 mg/kg (asterisked values)
Procedure, shortened: as §1

chymotripsin = chymotripsin (Bos taurus, UniProt P00766); experiment: Chymotripsin inhibiting activity; type: biochemical; conditions: 0.5 h; compound 1×10^-4 mole, ATEE substrate, pH 8.0, 37° C.; read-out: Percent chymotripsin inhibition
Description: Chymotripsin (0.1 unit) serving as an enzyme solution is added to a specified quantity of buffer solution containing 0.1 mole of trishydrochloric acid (pH 8.0). To the mixture is further added a 50% ethanol solution of the compound of the invention so that the resulting mixture contains the compound in a concentration of 1×10^-4 mole. The mixture is reacted at 37° C. for 20 minutes.
On completion of the reaction, 10 micromoles of N-acetyl-L-thyrosine ethyl ester (ATEE) serving as a substrate is added to the mixture, and the resulting mixture is reacted at 37° C. for 30 minutes.
After the completion of the reaction, the amount of remaining ATEE is determined by the same hydroxamic acid method as above. The percent chymotripsin inhibition is given by [formula] wherein A is the amount of hydrolyzed esters in the reaction system not containing the compound of the invention, and B is the amount of hydrolyzed esters in the reaction system containing the present compound.

esterase = experiment: Esterase inhibiting activity; type: biochemical; conditions: rat liver microsome esterase, methyl butyrate substrate, pH 8.0, 37° C., 60 minutes; read-out: IC50 for esterases
Description: A 10 micromole quantity of methyl butyrate in a 50% ethanol solution is added as a substrate to a specified amount of buffer solution containing 0.1 mole of trishydrochloric acid (pH 8.0). To the mixture is further added a 50% ethanol solution of the compound of the invention, immediately followed by addition of an esterase solution prepared from a purified microsome fraction of the liver of a rat (adjusted to hydrolyze 9 micromoles of methyl butyrate at 37° C. in one hour) as an enzyme solution. The mixture is reacted at 37° C. for 60 minutes.
After the reaction, alkaline hydroxylamine is added to the mixture to form a hydroxamic acid derivative of methyl butyrate, and a ferric salt is added to the derivative. The resulting red color is colorimetrically determined (at a wavelength of 540 nm) to determine the amount of remaining methyl butyrate. The esterase inhibiting ratios of the present compound at least at three concentrations are plotted as ordinate, and the logarithms of the concentrations as abscissa to obtain a line, which gives the 50% inhibition concentration (IC50).

Acute toxicity = conditions: rat, in vivo
Excerpt: Six-week-old male Wistar rats weighing 180 to 200 g are used, 5 rats in each group. Each compound of the invention is suspended in a 30% aqueous solution of polyethylene glycol 6000 and orally given to the rat at the dosage shown in Table 2. The animals are checked for poisoning, body weight and survival to determine the LD50 value.

[1] = oral 100 mg/kg, plasma 2 hours after dosing, Wistar rat
[2] = oral 100 mg/kg, plasma 8 hours after dosing, Wistar rat
[3] = oral, six-week-old male Wistar rats, suspended in 30% aqueous polyethylene glycol 6000, read-out: LD50
[4] = plasma 2 hours after dosing, Wistar rat
[5] = plasma 8 hours after dosing, Wistar rat

SMILES | inhibition in vivo at 100 mg/kg (triglycerides; [1]) [%] | inhibition in vivo at 100 mg/kg (cholesterol; [2]) [%] | inhibition at 100 µM (chymotripsin) [%] | IC50 (esterase) [nM] | LD50 (Acute toxicity; po) [mg/kg] | inhibition in vivo at 100 mg/kg (triglycerides; Rattus norvegicus, po, 2 h) [%] | inhibition in vivo at 100 mg/kg (cholesterol; Rattus norvegicus, po, 8 h) [%] | LD50 (Acute toxicity; [3]) [mg/kg] | inhibition in vivo at 200 mg/kg (triglycerides; [4]) [%] | Anti-lipemic effect, CS (percent cholesterol inhibition), asterisked (cholesterol; [5]) [%]
CCCC(=O)COS(=O)(=O)c1ccc2ccccc2c1 [Compound 5] | 86 | 73 | 17 | 3600 | > 2500 |  |  |  |  | 
CCCCCC(=O)COS(=O)(=O)c1ccccc1 [Compound 8] | 87 | 60 | 100 | 72 | > 2000 |  |  |  |  | 
CCCCCCC(=O)COS(=O)(=O)c1ccccc1 [Compound 9] | 88 | 62 | 96 | 68 | > 3000 |  |  |  |  | 
CCCCCCCCCC(=O)COS(=O)(=O)c1ccccc1 [Compound 10] |  |  | 14 | 7.6 |  | 80 | 61 | > 3000 |  | 
C=CCCC(=O)COS(=O)(=O)c1ccccc1 [Compound 14] | 92 | 62 | 25 | 520 | > 2000 |  |  |  |  | 
CCCCCC(=O)COS(=O)(=O)c1ccc(C)cc1 [Compound 18] | 94 | 40 | 77 | 1600 | > 3000 |  |  |  |  | 
CCCCCCC(=O)COS(=O)(=O)c1ccc(C)cc1 [Compound 19] | 78 | 41 | 100 | 3400 | > 3000 |  |  |  |  | 
CCCCCCC(=O)COS(=O)(=O)c1ccccc1C [Compound 31] | 61 | 31 | 100 | 17 | > 2000 |  |  |  |  | 
CCCCC(CC)C(=O)COS(=O)(=O)c1ccccc1C (centres unmarked) [Compound 32] | 70 | 43 | 0.4 | 350 | > 3000 |  |  |  |  | 
CCCCCCCC(=O)COS(=O)(=O)c1ccc(OC)cc1 [Compound 37] | 62 | 62 | 91 | 150 | > 3000 |  |  |  |  | 
CCCCCCCCCC(=O)COS(=O)(=O)c1ccc(OC)cc1 [Compound 38] |  |  | 45 | 100 | > 4000 |  |  |  | 67 | 
CCCCCCCC(=O)COS(=O)(=O)c1ccc(OCC)cc1 [Compound 47] |  | 60 | 67 | 590 | > 4000 |  |  |  | 82 | 
CCCCC(CC)C(=O)COS(=O)(=O)c1ccc(OCC)cc1 (centres unmarked) [Compound 50] | 80 | 94 | 31 | 21000 | > 4500 |  |  |  |  | 
CCCCCCCC(=O)COS(=O)(=O)c1ccc(OCCCC)cc1 [Compound 56] |  |  | 50 | 1000 | > 3000 |  |  |  | 64 | 42
CCCCCCCCCCCC(=O)COS(=O)(=O)c1ccc(O)cc1 [Compound 62] |  |  | 93 | 29 | > 3000 |  |  |  | 72 | 
CCCC(=O)COS(=O)(=O)c1c(C)cc(C)cc1C [Compound 73, 2-oxopentyl-2,4,6-trimethylbenzenesulfonate] | 92 | 90 | 13 | 1000 |  |  |  | > 3000 |  | 
CCCCCCCCC(=O)COS(=O)(=O)c1c(C)cc(C)cc1C [Compound 78] | 56 | 61 | 72 | 0.63 | > 4000 |  |  |  |  | 

SMILES | inhibition in vivo at 100 mg/kg (triglycerides; [1]) [%] | inhibition in vivo at 100 mg/kg (cholesterol; [2]) [%] | inhibition at 100 µM (chymotripsin) [%] | IC50 (esterase) [nM] | LD50 (Acute toxicity; po) [mg/kg] | inhibition in vivo at 100 mg/kg (triglycerides; Rattus norvegicus, po, 2 h) [%] | inhibition in vivo at 100 mg/kg (cholesterol; Rattus norvegicus, po, 8 h) [%] | LD50 (Acute toxicity; [3]) [mg/kg] | inhibition in vivo at 200 mg/kg (triglycerides; [4]) [%] | Anti-lipemic effect, CS (percent cholesterol inhibition), asterisked (cholesterol; [5]) [%]
CCCCCCCCCCC(=O)COS(=O)(=O)c1c(C)cc(C)cc1C [Compound 80] |  |  | 55 | 0.032 | > 4000 |  |  |  | 63 | 
C=CCCC(=O)COS(=O)(=O)c1c(C)cc(C)cc1C [Compound 86] | 79 | 66 | 14 | 120 | > 3000 |  |  |  |  | 
CCCCCC(=O)COS(=O)(=O)c1c(C)c(C)cc(C)c1C [Compound 90] |  |  | 13 | 2.6 | > 3000 |  |  |  | 59 | 
CCCCC(=O)COS(=O)(=O)c1c(C)cc(C)c(C)c1C [Compound 96] | 68 | 71 | 12 | 0.16 | > 3000 |  |  |  |  | 
CCCCCCCCC(=O)COS(=O)(=O)c1c(C)cc(C)c(C)c1C [Compound 98] |  |  | 26 | 0.027 | > 4000 |  |  |  | 70 | 71
C=CCCCCCCCCC(=O)COS(=O)(=O)c1c(C)cc(C)c(C)c1C [Compound 101] |  |  | 23 | 30 | > 4000 |  |  |  | 54 | 
CCCC(=O)COS(=O)(=O)c1cc(C)ccc1C [Compound 111] | 73 | 51 | 4 | 280 | > 2000 |  |  |  |  | 
CCCC(=O)COS(=O)(=O)c1cc(C)c(C)cc1C [Compound 116] | 90 | 82 | 0 | 1300 | > 2000 |  |  |  |  | 
CCCCC(CCCC)C(=O)COS(=O)(=O)c1ccc(C)cc1 [Compound 129] | 66 | 45 | 30 | 7000 | > 3000 |  |  |  |  | 
CCCCCC(C)C(=O)COS(=O)(=O)c1ccc(C)cc1 (centres unmarked) [Compound 130] | 72 | 51 | 52 | 4000 | > 3000 |  |  |  |  | 
CCCC(CC)C(=O)COS(=O)(=O)c1ccc(OCC)cc1 (centres unmarked) [Compound 134] | 82 | 65 | 2 | 560000 | > 4500 |  |  |  |  | 
CCCC(CCC)C(=O)COS(=O)(=O)c1ccc(OCC)cc1 [Compound 135] | 91 | 92 | 10 | 56000 | > 4500 |  |  |  |  | 
CCOc1ccc(S(=O)(=O)OCC(=O)CC(CC)CC)cc1 [Compound 137] | 81 | 72 | 14 | 10000 | > 4000 |  |  |  |  | 
CCOc1ccc(S(=O)(=O)OCC(=O)CCC(C)C)cc1 [Compound 138] | 95 | 90 | 67 | 4200 | > 2000 |  |  |  |  | 
CCOc1ccc(S(=O)(=O)OCC(=O)CCC(C)CC)cc1 (centres unmarked) [Compound 143] |  |  | 79 | 2000 | > 4000 |  |  |  | 62 | 
CCOc1ccc(S(=O)(=O)OCC(=O)CCCC(C)C)cc1 [Compound 145] | 61 | 62 | 87 | 3300 | > 3000 |  |  |  |  | 
Cc1cc(C)c(S(=O)(=O)OCC(=O)CC(C)C)c(C)c1 [Compound 149] | 81 | 67 | 7 | 1000 | > 3000 |  |  |  |  | 
